Source: article PMC9138102, “The Role of ZIP9 and Androgen Receptor in the Establishment of Tight Junctions between Adult Rat Sertoli Cells” (Biology, 2022)

Assays:
AR = AR nuclear translocation in PASC1 cells (immunofluorescence); type: cell-based, rat; details: 2 h
Description: PASC1 cells were plated at a density of 3.0 × 10^4 on 24-well plates (1 mL/well) and incubated 48 h at 37 °C and 5% CO2 until a confluence of roughly 80% was reached. Cells were rinsed with DPBS and fixed with 100% ice-cold methanol (Roth, Karlsruhe, Germany) on ice for 10 min directly or after stimulation with vehicle, 10 nM testosterone, or 1 µM P1 for 24 h. Cells were then washed with DPBS three times for 5 min, and then incubated in blocking solution (PBS with 3% BSA and 0.3% Triton X-100, both from Sigma-Aldrich) for 1 h at room temperature. The blocking solution was replaced by fresh blocking solution containing the primary antibodies for detection of either AR, p-Erk1/2, p-CREB/p-ATF-1, claudin-1 (Cldn-1), or zonula occludens-1 (ZO-1) (Supplementary Table S1) and incubated overnight at 4 °C. […] After washing 3 times with DPBS, images were obtained using an inverse Olympus IX81 microscope equipped with a fluorescence system. A total of 30 cells from 3 independent experiments (30 × 3) localized closest to the diagonals of the square optical field were selected and the manually surrounded green fluorescence was quantified by ImageJ (available at http://rsbweb.nih.gov/ij/, last accessed 28 February 2022) following the protocol of the software provider.

Erk1/2 = Erk1/2 phosphorylation in PASC1 cells, Western blot; type: cell-based, rat
Description: A total of 3 × 10^4 PASC1 cells/dish were grown in 5 cm culture dishes as described above. Cells were then incubated for 24 h with 1% FCS before testosterone or P1 were added to the medium to reach the desired final concentration. The ethanol vehicle for testosterone was added to the peptide-treated cells and untreated controls at the same concentration as in cell cultures treated with testosterone. After 24 h, the medium was aspired and the cells were washed twice in ice-cold DPBS. Cells were then incubated with 400 µL lysis buffer (Cell Signaling Technologies, Frankfurt, Germany) containing 1 µM PMSF, 1× protease inhibitor cocktail (Roche, Mannheim, Germany), and 2 µg/mL pepstatin that was added immediately before use. All further steps were carried out on ice. After 5 min of incubation, cells were detached using a cell scraper. The suspensions were then transferred into 1.5 mL vials and sonicated 5 times for 1 s each with intervals of 1 s. After centrifugation of the lysates at 4 °C and 13,000× g for 10 min, the protein concentration in the supernatants was determined at 540 nm using a bicinchoninic acid protein assay reagent kit (Pierce, Southfield, MI, USA) and a Labsystems (Helsinki, Finland) plate reader. The BSA protein standard contained lysis buffer at the same concentration as in the samples from the cell lysates. Supernatants were then aliquoted and maintained at −20 °C until further use.
A total of 10 µg protein from PASC1 cell lysates was run on SDS-PAGE gels containing 10% acrylamide and 0.3% N,N′-methylene-bis-acrylamide. Biotinylated proteins (Cell Signaling Technologies) were run in parallel as molecular weight markers. After electrophoresis, proteins were semi-dry electro-blotted onto PVDF membranes (Merck Chemicals GmbH, Schwalbach, Germany) for 30 min at […]. The membranes were then incubated for 1 h at room temperature in 5% (w/w) non-fat dry milk. Primary antibodies against phospho-Erk1/2, total-Erk1/2, or beta-actin were diluted according to the recommendations of the manufacturers and then incubated with the PVDF membranes overnight at 4 °C (see Supplementary Table S1 for all antibodies with dilutions and manufacturers). After washing in DPBS, the membranes were incubated under continuous mild agitation on an orbital shaker for 60 min at room temperature with a horseradish peroxidase-conjugated secondary antibody. An anti-biotin, HRP-conjugated antibody at a dilution of 1:2000 was also included in the mixture containing the secondary antibody in order to detect the biotinylated molecular weight marker. Antibody-labeled protein bands were visualized by enhanced chemiluminescence.
Figure 5 Western blot analysis of phospho-Erk1/2. PASC1 cells were stimulated for 24 h with various concentrations of testosterone or IAPG. (A) Phospho-Erk1/2 detection after stimulation with testosterone and (B) after stimulation with IAPG. […] For each diagram: n = 3; means ± SEM. Original Western blots are shown in Supplementary Figure S1.

Cldn-1 = Cldn-1 expression in PASC1 cells, immunofluorescence; type: cell-based, rat; details: 10 nM testosterone or 10 µM IAPG, 24 h, n = 3 × 25
Description: PASC1 cells were plated at a density of 3.0 × 10^4 on 24-well plates (1 mL/well) and incubated 48 h at 37 °C and 5% CO2 until a confluence of roughly 80% was reached. Cells were rinsed with DPBS and fixed with 100% ice-cold methanol (Roth, Karlsruhe, Germany) on ice for 10 min directly or after stimulation with vehicle, 10 nM testosterone, or 1 µM P1 for 24 h. Cells were then washed with DPBS three times for 5 min, and then incubated in blocking solution (PBS with 3% BSA and 0.3% Triton X-100, both from Sigma-Aldrich) for 1 h at room temperature. The blocking solution was replaced by fresh blocking solution containing the primary antibodies for detection of either AR, p-Erk1/2, p-CREB/p-ATF-1, claudin-1 (Cldn-1), or zonula occludens-1 (ZO-1) (Supplementary Table S1) and incubated overnight at 4 °C. Cells were washed 3 times with DPBS for 3 min each at RT on an orbital shaker, freshly made blocking solution with the appropriate Alexafluor 488-conjugated donkey anti-rabbit secondary antibody was added for 1 h at room temperature on an orbital shaker. After washing 3 times with DPBS, images were obtained using an inverse Olympus IX81 microscope equipped with a fluorescence system. […] The data obtained were analyzed by GraphPad Prism5 (GraphPad Software, Inc., La Jolla, CA, USA).
(§1) For silencing ZIP9 or AR expression, PASC1 cells were treated with commercially available siRNA directed against the expression of ZIP9 or the AR by following the manufacturer’s protocol (Silencer ® Select, siRNA Invitrogen, Darmstadt, Germany). The following oligonucleotides were used: 5′ […]tt3′ and 5′ […]ta 3′ (ZIP9-siRNA for ZIP9 silencing) and 5′[…]tt3′ plus 5′ […]ag 3′ (AR-siRNA for AR silencing). Negative control siRNA (nc-siRNA) was provided in the siRNA kit from the same manufacturer. After incubation of PASC1 for 48 h with ZIP9-siRNA, AR-siRNA, or nc-siRNA, preparation of samples for qRT-PCR, TER measurement, or immunofluorescence experiments were carried out as described above.

JAM-3-specific mRNA = assay: JAM-3 mRNA expression in PASC1 cells, qRT-PCR; type: cell-based, rat; details: 10 nM testosterone or 10 µM IAPG, 24 h, n = 3 × 2
Description: Primers were designed with http://www.ncbi.nlm.nih.gov/tools/primer-blast (Accessed on 28 February 2022) and were all intron-spanning. Total RNA was isolated from PASC1 with the RNeasy Mini-Kit (Qiagen, Hilden, Germany) and subjected to DNase I treatment as described by the manufacturer. The Reverse Transcription-System first strand cDNA synthesis kit (Invitrogen, Darmstadt, Germany) was used for cDNA synthesis, as recommended. Quantitative real-time PCR (qRT-PCR) amplification was performed in duplicate with iQ TM SYBR Green Super-mix (Bio-Rad; Munich; Germany) on the iCycler iQ System (Bio-Rad). After an initial heating at 94 °C for 5 min, 40 amplification cycles were performed consisting of an initial denaturation of the DNA double strands at 94 °C for 14 s, an annealing phase of the primers at 59 °C for 30 s, and extension of the primers for 15 s at 72 °C. A finalizing extension at 72 °C was carried out for 10 min. Gene expression was measured after reaching the ct value and calculated using the Delta–Delta Ct method. Detection of GAPDH-specific mRNA/cDNA served as normalization of the quantification. Oligonucleotides used in the qRT-PCR, their annealing position, and the expected size of the amplificates are listed in Supplementary Table S2.
as §1

[1] = tested on: androgen binding site ZIP9 of the Sertoli cell line 93RS2; set-up: method as in PMID 35053053, PMID 35053017; details: 93RS2 / L6 (cell line not separately stated); cited from earlier work

Row | Molecule | AR localization / translocation into the nucleus (AR; testosterone 10 nM) | Total expression of Erk1/2 or beta-actin (Erk1/2) | EC50 (Erk1/2; Rattus norvegicus, 24 h per legend, within 30 min per text, 10^-10 to 10^-7 M, n = 3, means ± SEM) | Concentration needed for maximum stimulation of Erk1/2 phosphorylation (Erk1/2; testosterone) | Cldn-1 expression (Cldn-1; AR-siRNA) | Cldn-1 expression (Cldn-1; ZIP9-siRNA) | Cldn-1 expression (Cldn-1; nc-siRNA) | JAM-3 mRNA expression (JAM-3-specific mRNA; AR-siRNA) | JAM-3 mRNA expression (JAM-3-specific mRNA; ZIP9-siRNA) | JAM-3 mRNA expression (JAM-3-specific mRNA; nc-siRNA) | Prevention of T-BSA-FITC binding [1] | AR localization / translocation into the nucleus (AR; IAPG 10 µM) | Concentration needed for maximum stimulation of Erk1/2 phosphorylation (Erk1/2; IAPG)
1 | C[C@]12CC[C@H]3[C@@H](CCC4=CC(=O)CC[C@@]43C)[C@@H]1CC[C@@H]2O [testosterone] | all green fluorescence was found within the nuclei | did not affect total expression of Erk1/2 or beta-actin | 0.35 nM | 0.01 µM | stimulated the expression of Cldn-1 | failed to do so | stimulated the expression of Cldn-1 | upregulated | remained at basal levels | upregulated | Its binding can be prevented |  | 
2 | IAPG |  | did not affect total expression of Erk1/2 or beta-actin |  |  | stimulated the expression of Cldn-1 | failed to do so | stimulated the expression of Cldn-1 | upregulated | remained at basal levels | upregulated | Its binding can be prevented | A translocation of the AR from the cytosol into the nucleus did not occur | 10 µM
